Activity calls are given as the source filed them. For most assays here, no stated cut-off is given here; in the data, active = IC50 of 10 µM or less and inactive = more.
Experiments:
[1] = biological target: ADP-ribosylation factor GTPase-activating protein 1 (Rattus norvegicus, UniProt Q62848); test: Fluorescence polarization-based biochemical high throughput dose response screening assay to identify inhibitors of ADP-ribosylation factor GTPase activating protein 1 (ARFGAP1).; type: functional
Chain of ADP-ribosylation factor GTPase-activating protein 1 (Q62848 whole entry): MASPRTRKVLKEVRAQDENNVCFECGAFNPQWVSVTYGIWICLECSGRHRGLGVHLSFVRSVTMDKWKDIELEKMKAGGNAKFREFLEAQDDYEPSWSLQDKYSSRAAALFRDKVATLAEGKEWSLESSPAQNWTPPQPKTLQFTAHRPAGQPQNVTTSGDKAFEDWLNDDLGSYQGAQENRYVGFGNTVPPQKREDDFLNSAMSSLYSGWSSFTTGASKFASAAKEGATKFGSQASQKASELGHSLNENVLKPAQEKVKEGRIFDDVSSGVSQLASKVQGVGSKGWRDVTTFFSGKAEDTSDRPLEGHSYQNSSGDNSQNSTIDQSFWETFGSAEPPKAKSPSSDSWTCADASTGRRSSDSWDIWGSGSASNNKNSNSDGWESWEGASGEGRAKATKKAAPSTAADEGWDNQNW

[2] = biological target: Protein Wnt-3a (Mus musculus, UniProt P27467); test: antagonism of Wnt3a pathway luciferase reporter – Wnt-LIGHT cells, luminescence, selectivity assay for Gli-SUFU antagonist project, dose response (AID 651570); type: functional; details: read-out: IC50_Mean;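 further: Wnt-LIGHT reporter cells stimulated with conditioned medium from Wnt3a-producing cells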
Chain of Protein Wnt-3a (P27467 whole entry): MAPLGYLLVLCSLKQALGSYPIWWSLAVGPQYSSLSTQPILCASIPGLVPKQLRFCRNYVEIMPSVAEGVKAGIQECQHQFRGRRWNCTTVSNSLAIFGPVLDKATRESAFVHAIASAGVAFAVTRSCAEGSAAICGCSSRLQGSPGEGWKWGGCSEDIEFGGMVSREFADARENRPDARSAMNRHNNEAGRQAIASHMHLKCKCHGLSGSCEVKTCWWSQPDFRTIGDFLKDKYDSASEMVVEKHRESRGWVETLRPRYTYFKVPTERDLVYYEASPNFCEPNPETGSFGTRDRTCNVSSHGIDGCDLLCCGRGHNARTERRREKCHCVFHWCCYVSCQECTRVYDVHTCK

[3] = biological target: T1, Orexin/Hypocretin receptor type 1 (Homo sapiens, UniProt O43613); test: (§1) Fluorescence-based cell-based high throughput dose response assay for antagonists of the orexin 1 receptor (OX1R; HCRTR1). [Related pubchem assays (depositor defined):AID434989, AID435008, AID463079, AID485270, AID492963, AID492964, AID492965, AID493232, AID504717, AID504718]; type: functional
T1 sequence (O43613 whole entry): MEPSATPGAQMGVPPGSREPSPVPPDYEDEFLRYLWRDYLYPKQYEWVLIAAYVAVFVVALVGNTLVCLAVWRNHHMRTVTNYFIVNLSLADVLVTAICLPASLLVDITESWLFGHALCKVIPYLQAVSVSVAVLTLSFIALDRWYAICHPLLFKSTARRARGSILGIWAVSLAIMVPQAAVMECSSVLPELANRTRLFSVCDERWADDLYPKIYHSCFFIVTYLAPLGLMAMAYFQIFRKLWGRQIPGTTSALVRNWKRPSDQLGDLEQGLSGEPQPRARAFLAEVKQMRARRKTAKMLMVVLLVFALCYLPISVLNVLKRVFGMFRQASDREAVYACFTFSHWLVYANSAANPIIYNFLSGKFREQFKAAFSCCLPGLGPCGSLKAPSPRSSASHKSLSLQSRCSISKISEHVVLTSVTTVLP

[4] = biological target: T2, Orexin receptor type 2 (Homo sapiens, UniProt O43614); test: Counterscreen assay for antagonists of the orexin 1 receptor (OX1R; HCRTR1): Fluorescence-based cell-based dose response assay for antagonists of the orexin 2 receptor (OX2R; HCRTR2), run by assay provider.; type: functional
T2 sequence (O43614 whole entry): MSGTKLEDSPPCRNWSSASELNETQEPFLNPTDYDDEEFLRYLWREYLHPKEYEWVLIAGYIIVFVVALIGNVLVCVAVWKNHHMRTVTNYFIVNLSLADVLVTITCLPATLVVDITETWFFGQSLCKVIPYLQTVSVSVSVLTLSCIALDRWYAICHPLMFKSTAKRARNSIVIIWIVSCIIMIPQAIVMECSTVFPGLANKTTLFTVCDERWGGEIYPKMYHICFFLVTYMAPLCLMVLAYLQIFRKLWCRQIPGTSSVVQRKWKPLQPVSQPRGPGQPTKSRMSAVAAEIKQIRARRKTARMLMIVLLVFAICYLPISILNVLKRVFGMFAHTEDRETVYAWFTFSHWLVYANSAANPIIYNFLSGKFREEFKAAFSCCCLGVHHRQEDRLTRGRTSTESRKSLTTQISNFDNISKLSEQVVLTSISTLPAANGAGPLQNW

[5] = Luminescence Cell-Based Dose Retest to Confirm Inhibitors of Cancer Stem Cells. [Related pubchem assays (depositor defined):AID2717, AID2721]; type: functional; details: Homo sapiens
[6] = (§2) Counterscreen for antagonists of the orexin 1 receptor (OX1R; HCRTR1): Fluorescence-based cell-based high throughput dose response assay to identify antagonists of the parental CHO cell line. [Related pubchem assays (depositor defined):AID434989, AID435008, AID463079, AID485270, AID492963, AID492964, AID492965, AID493232, AID504699, AID504701]; type: functional
[7] = tested on: CHO-K1; test: as §2, with “Homogeneous time resolved fluorescence (HTRF)-based” for “Fluorescence-based”, “cell-based” for “cell-based high throughput”, “CHO-K1” for “CHO”; type: functional; details: Cricetulus griseus;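 further: potency for inhibition of ATP-stimulated IP1 production as antagonists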
[8] = biological target: T2, Orexin receptor type 2; test: Counterscreen assay for antagonists of the orexin 1 receptor (OX1R; HCRTR1): Homogeneous Time Resolved Fluorescence (HTRF)-based cell-based dose response assay for antagonists of the orexin 2 receptor (OX2R; HCRTR2), run by assay provider.; type: functional
[9] = biological target: T1, Orexin/Hypocretin receptor type 1; test: as §1, with “Homogeneous Time Resolved Fluorescence (HTRF)-based” for “Fluorescence-based”; type: functional
[10] = biological target: T3, Methionyl-tRNA synthetase, putative (Trypanosoma brucei brucei, UniProt Q38C91); type: functional, Trypanosoma brucei brucei strain 927/4 GUTat10.1
T3 sequence (Q38C91 whole entry): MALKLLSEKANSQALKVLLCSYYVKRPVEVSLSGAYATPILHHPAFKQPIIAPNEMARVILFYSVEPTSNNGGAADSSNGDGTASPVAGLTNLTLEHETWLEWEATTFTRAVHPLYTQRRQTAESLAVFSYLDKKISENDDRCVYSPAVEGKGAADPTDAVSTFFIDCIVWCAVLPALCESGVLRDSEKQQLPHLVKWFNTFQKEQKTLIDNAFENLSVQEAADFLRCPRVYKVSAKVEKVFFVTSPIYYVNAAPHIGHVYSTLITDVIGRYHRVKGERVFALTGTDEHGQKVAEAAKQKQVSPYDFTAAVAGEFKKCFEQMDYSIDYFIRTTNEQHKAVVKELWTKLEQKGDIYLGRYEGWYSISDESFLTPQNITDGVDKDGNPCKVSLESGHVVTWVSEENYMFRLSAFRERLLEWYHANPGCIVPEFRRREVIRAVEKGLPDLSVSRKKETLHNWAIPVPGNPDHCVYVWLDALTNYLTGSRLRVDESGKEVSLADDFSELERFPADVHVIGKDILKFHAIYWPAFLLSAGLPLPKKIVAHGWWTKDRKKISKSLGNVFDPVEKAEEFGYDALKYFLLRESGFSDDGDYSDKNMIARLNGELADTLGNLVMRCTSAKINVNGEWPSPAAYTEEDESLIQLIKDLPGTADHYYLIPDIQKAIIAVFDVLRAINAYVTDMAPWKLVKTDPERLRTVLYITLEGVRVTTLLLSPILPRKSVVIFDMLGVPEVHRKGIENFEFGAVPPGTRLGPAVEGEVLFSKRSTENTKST

[11] = Counterscreen for inhibitors of Trypanosoma brucei methionyl tRNA synthetase (MetRS): Luminescence-based cell-based high throughput dose response assay to identify compounds that are cytotoxic to Jurkat human T lymphocyte cells.; type: functional
[12] = biological target: T3, Methionyl-tRNA synthetase, putative; type: functional, Trypanosoma brucei brucei strain 927/4 GUTat10.1; remark: listed apart in the source
[13] = nonselective StAR promoter luciferase inhibitors – cell-based, luminescence, luciferase reporter, counter-screen for LRH-1 inverse agonist project, dose response (AID 651969); type: functional
[14] = biological target: Nuclear receptor subfamily 5 group A member 2 (Homo sapiens, UniProt O00482); type: functional, cell-based;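 further: HEK293T cells transfected with LRH-1 and a StAR promoter luciferase reporter; potency for inhibitors that lower LRH-1 driven reporter light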
Chain of Nuclear receptor subfamily 5 group A member 2 (O00482 whole entry): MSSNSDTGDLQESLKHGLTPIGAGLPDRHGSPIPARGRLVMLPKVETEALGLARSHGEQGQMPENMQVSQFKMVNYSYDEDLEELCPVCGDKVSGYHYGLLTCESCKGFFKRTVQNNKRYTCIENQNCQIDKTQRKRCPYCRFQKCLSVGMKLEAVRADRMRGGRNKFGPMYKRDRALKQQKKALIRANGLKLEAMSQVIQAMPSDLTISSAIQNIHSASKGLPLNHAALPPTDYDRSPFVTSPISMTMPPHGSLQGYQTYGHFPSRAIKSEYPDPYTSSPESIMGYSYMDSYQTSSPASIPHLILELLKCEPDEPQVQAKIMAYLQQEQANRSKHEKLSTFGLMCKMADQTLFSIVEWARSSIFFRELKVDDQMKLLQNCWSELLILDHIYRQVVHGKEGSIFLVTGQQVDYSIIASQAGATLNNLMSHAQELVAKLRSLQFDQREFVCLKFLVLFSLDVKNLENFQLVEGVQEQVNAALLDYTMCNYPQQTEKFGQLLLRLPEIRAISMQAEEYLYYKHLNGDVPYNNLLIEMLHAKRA

[15] = biological target: Steroidogenic factor 1 (Homo sapiens, UniProt Q13285); test: Counterscreen for inverse agonists of the liver receptor homolog-1 (LRH-1; NR5A2): Luminescence-based cell-based high throughput dose response assay to identify inverse agonists of the Steroidogenic Factor 1 Nuclear Receptor (SF1; NR5A1).; type: functional
Chain of Steroidogenic factor 1 (Q13285 whole entry): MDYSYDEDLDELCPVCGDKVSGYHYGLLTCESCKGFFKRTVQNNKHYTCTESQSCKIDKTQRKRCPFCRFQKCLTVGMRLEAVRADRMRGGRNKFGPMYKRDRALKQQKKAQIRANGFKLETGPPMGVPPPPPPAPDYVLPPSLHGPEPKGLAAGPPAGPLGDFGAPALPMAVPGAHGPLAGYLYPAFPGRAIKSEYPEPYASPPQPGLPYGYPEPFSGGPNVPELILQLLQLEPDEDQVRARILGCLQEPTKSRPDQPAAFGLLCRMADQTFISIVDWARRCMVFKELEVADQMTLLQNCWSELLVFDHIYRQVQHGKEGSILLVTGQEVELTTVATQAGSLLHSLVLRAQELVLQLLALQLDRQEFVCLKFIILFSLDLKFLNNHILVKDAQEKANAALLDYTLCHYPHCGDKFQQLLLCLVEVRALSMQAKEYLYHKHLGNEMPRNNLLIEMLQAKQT
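Wherever AC50 is given: cells exposed to compound for roughly 70 hours or longer before luminescence read.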

Row | Compound | IC50 [3] | IC50 [4] | IC50 [6] | IC50 [7] | IC50 [8] | IC50 [9] | other results
1 | COc1ccc2oc(C(=O)OCC(=O)N3CC(C)CC(C)C3)c(C)c2c1 (centres undefined) |  |  |  |  |  |  | IC50 [1]: 44.9 µM (inactive)
2 | Cc1ccc(C)c([N+]2=C3CCCCN3C(O)(c3cccs3)C2)c1 (centres undefined) |  |  |  |  |  |  | IC50 [2]: 13.2 µM (active)
3 | Cn1c2ccccc2c(=O)c2cc(C#Cc3ccccn3)ccc21 | 3.9 µM (active) | > 88.8 µM (inactive) | > 49.7 µM (inactive) | > 66.2 µM (inactive) | > 50 µM (inactive) | 0.413 µM (active) | AC50 [5]: 9.17 µM (active)
4 | CC(=O)c1ccc(N2CCN(c3ccc(C(F)(F)F)cn3)CC2)cc1 |  |  |  |  |  |  | IC50 [2]: 24.3 µM (inactive)
5 | Cc1c(C(=O)OCC(=O)NCCN2C(=O)CSC2=O)oc2c1ccc1ccccc12 | 6.78 µM (active) | > 88.8 µM (inactive) | > 49.7 µM (inactive) | > 66.2 µM (inactive) | > 50 µM (inactive) | 1.23 µM (active) | 
6 | Fc1cccc(Nc2nc3ccccc3n3cnnc23)c1 | 7.59 µM (active) | > 88.8 µM (inactive) | > 49.8 µM (inactive) | > 66.3 µM (inactive) | 2.13 µM (active) | 2.03 µM (active) | 
7 | C=CCNc1nc(NCCOC)c2sc(-c3ccccc3)cc2n1 |  |  |  |  |  |  | IC50 [1]: 101 µM (inactive)
8 | C[C@H](O)[C@@H]1CN2CCc3c([nH]c4ccccc34)[C@@H]2C[C@@H]1N(C)C(=O)Nc1cc(Cl)cc(Cl)c1 |  |  |  |  |  |  | IC50 [10]: 8.53 µM (active); IC50 [11]: 15.8 µM (inactive); IC50 [12]: 14.9 µM (inactive)
9 | CC(C)CC1(C)NC(=O)N(CC(=O)Nc2ccc3c(c2)OCCO3)C1=O (centres undefined) |  |  |  |  |  |  | IC50 [13]: 35.9 µM (inactive); IC50 [14]: 42.7 µM (inactive); IC50 [15]: 7.12 µM (active)

Source: ChEMBL document CHEMBL1201862, “PubChem BioAssay data set” (2004)
